Assay results reported in patent publication US4207311A, “Peptides having analgesic and thermoregulative properties” (The Salk Institute for Biological Studies, priority 1977, dated 1980).
Square brackets hold non-standard residues; d marks the D form. Peptide text beside a SMILES is read from it. pGlu = O=C1CC[C@@H](C(=O)O)N1

System: cold exposed rat
Assay: hypothermia in cold exposed rats after intracisternal injection (rectal/core temperature)
Format: in vivo
Procedure: Male Sprague-Dawley-CV rats weighing 180-200 grams were housed in temperature and humidity controlled quarters. The rats were fed a standard rat food ration and tap water ad libitum. After being anesthetized with ether, peptides were injected into the cisterna magna of each rat. Ten microliters of a peptide solution containing 1-1000 nanograms of the peptide were injected. Immediately following the injections, the animals were transferred to a cold room maintained at 4° C. Rectal temperatures were recorded with a thermo probe at 30 minute intervals following injection. All experiments were carried out in a randomized block design. Following analyses of variance, differences between the effect of the various peptides were determined. The peptides were dissolved in a buffer composed of 126 mM, NaCl, 6 mM KCl, 1 mM NaH2 PO4, 0.88 mM MgSo4, 1.45 mM CaCl2, and 25 mM HEPES pH 7.2.
Other peptides isolated from anuran skin, i.e., litorin, ranatensin and alytesin, are approximately 1%, 10% and 100% respectively as potent as the peptide described above to lower body temperature of the cold exposed rat.

Row | Compound | potency relative to Neurotensin to produce hypothermia (cold exposed rat (4° C.), graded doses, core temperature 60 minutes following administration) | potency relative to the peptide of Example I to lower body temperature (cold exposed rat)
1 | CSCC[C@H](NC(=O)[C@H](CC(C)C)NC(=O)[C@H](Cc1cnc[nH]1)NC(=O)CNC(=O)[C@@H](NC(=O)[C@H](C)NC(=O)[C@H](Cc1c[nH]c2ccccc12)NC(=O)[C@H](CCC(N)=O)NC(=O)[C@H](CC(N)=O)NC(=O)CNC(=O)[C@H](CC(C)C)NC(=O)[C@H](CCCN=C(N)N)NC(=O)[C@H](CCC(N)=O)NC(=O)[C@@H]1CCC(=O)N1)C(C)C)C(N)=O [the peptide of the invention] | at least 10^4 times | 
2 | CSCC[C@H](NC(=O)[C@H](Cc1ccccc1)NC(=O)[C@H](Cc1c[nH]cn1)NC(=O)CNC(=O)[C@@H](NC(=O)[C@H](C)NC(=O)[C@H](Cc1c[nH]c2ccccc12)NC(=O)[C@H](CCC(N)=O)NC(=O)[C@@H]1CCCN1C(=O)[C@@H](NC(=O)[C@@H]1CCC(=O)N1)C(C)C)C(C)C)C(N)=O [ranatensin] ([pGlu]VPQWAVGHFM-NH2) |  | ~10%
